The values that follow come from patent publication EP1655287A1, “PROBE FOR DISEASES WITH AMYLOID ACCUMULATION, AMYLOID-STAINING AGENT, REMEDY AND PREVENTIVE FOR DISEASES WITH AMYLOID ACCUMULATION AND DIAGNOSTIC PROBE AND STAINING AGENT FOR NEUROFIBRILLARY CHANGE” (priority 2003, dated 2005).

Data set [1] can be described thus: Acute toxicity testing, intravenous administration. The conditions noted are these: male Crj:CD1 mice, via tail vein, observed up to 7 days; for MTD at 168 h: mouse, in vivo, iv, read-out: Maximum Tolerated Dose (mg/kg, intravenous administration). In kind it is in vivo. The protocol: The following explanation is made of testing methods for properties of the compounds of the present invention. (A) Testing of acute toxicity Acute toxicity of the inventive compounds was determined employing mice by intravenous administration. Male Crj:CD1 mice were used and divided into groups of 4 mice, with an average weight of each group of 31-32 g. […] Up to 7 days after administration, observations were made.

In the next data set the test system is Amyloid β-protein. The experiment in a line: Screening of the degree of β-structure recognition (fluorescence, in the presence of Congo red). It counts as binding. The conditions noted are these: test compound 5 µM, amyloid β-protein 5 µM, Congo red 0.1 µM, phosphate buffer pH 7.4.
A further data set concerns the target T1, senile plaques (Homo sapiens, UniProt P05067).
T1 construct: The former has, as the main component, amyloid β-protein (Aβ protein) taking β-sheet structures; from tissue; host or cells: paraffin-embedded temporal lobe or hippocampus sections of an Alzheimer's disease patient's brain (Fukushimura Hospital)
The data set is described as follows: Staining of senile plaques and diffuse plaques in brain sections, compared with thioflavin S, BSB or anti-Aβ antibody 6F/3D immunostaining. It counts as binding, patient with Alzheimer's disease. The conditions noted are these: 100 µM compound in 50% ethanol; for staining properties compared with immunostaining of anti-Aβ antibody 6F/3D: adjacent sections immunostained with 6F/3D; for staining properties in sections of the brain of a patient with Alzheimer's disease: compared with thioflavin S (and BSB) on adjacent sections. The source says:
The following explanation is made about testing of staining properties of the compounds of the present invention on brain sections of an Alzheimer's disease patient. • (1) Temporal lobe or hippocampus specimens of the brain of a patient who had been definitely diagnosed pathologically as Alzheimer's disease and of a normal aged individual were used. These specimens were provided from Fukushimura Hospital, our joint research facility, with the consent to their use for research purpose received from the bereaved family of the patient (BF Research Laboratories Institutional Ethics Board Permission No. RS-99-02). • (2) The brain tissues embedded in paraffin were sliced 6 or 8 µm thick, extended on slides, and dried. The paraffin-embedded brain sections were deparaffined by washing sequentially with xylene (10 minutes, twice), 100% ethanol (15 minutes, twice), 95% ethanol (15 minutes, twice), and a stream of water (10 minutes). • (3) Pre-treatment for staining with compounds of the present invention involved treating the sections for eliminating self-fluorescence due to lipofuscin. First, the deparaffined sections were immersed into a 10% formalin solution for 60 minutes and washed with PBS for 5 minutes, followed by immersion into a 0.25% solution of KMnO4 for 90 minutes. After washing twice with PBS for 2 minutes each, the sections were immersed into a solution of 0.1% K2S2O5/oxalic acid for about 30 seconds each, and then washed three times with PBS for 2 minutes each. • (4) About 150 µl of a 100 µM solution of a compound of the present invention dissolved in 50% ethanol was added dropwise onto the sections and allowed the reaction to be carried out for 10 minutes. The sections were dipped into tap water five times, and then 50% ethanol three to five times, followed by immediate classification. After that, the sections were immersed into PBS for 60 minutes, enclosed with Fluor Save Reagent (Calbiochem), and examined under a fluorescent microscope (Nikon, Eclips E800). Pictures were taken using a digital camera (Plaroid PDMCII).
Immunostaining was carried out as follows. • (a) Procedures for immunostaining amyloid β-protein: • (1) After the sections were deparaffined, the sections were washed twice in distilled water for 2 minutes each, and tissues were marked with an Immunopen. About 150 µl of formic acid was added dropwise and allowed to stand at room temperature for 5 minutes. The sections were washed with tap water for 5 minutes and immersed into cold PBS-Tween 20 for 2 minutes, and then about 150 µl of a 0.05% trypsin solution was added dropwise and allowed the reaction to be carried out at 37°C for 15 minutes. • (2) In an ice bath, the sections were washed twice with cold PBS-Tween 20 for 5 minutes each, and two drops of blocking serum were added and allowed the reaction to be carried out at 37°C for 15 minutes. Excess water was removed, and about 150 µl of 6F/3D, an antibody specific to amyloid β-protein (DAKO; diluted 1:50) was added dropwise and allowed the reaction to be carried out at 37°C for 1 hour. • (3) Further, after washing five times with cold PBS-Tween 20 for 2 minutes each, two drops of a solution of goat antimouse IgG (H+L) conjugated to biotin were added and allowed the reaction to be carried out at 37°C for 1 hour. After that, the sections were washed three times with cold PBS-Tween 20 for 2 minutes each, and two drops of ABS solution (a streptavidin-biotin-peroxidase complex solution) were added and allowed to stand for 30 minutes. The sections were again washed three times with cold PBS-Tween 20 for 2 minutes each, and about 150 µl of DAB solution (prepared by dissolving 10 mg of DAB in 20 ml of 0.05 mol/l Tris-HCl buffer and adding 100 µl of 3% hydrogen peroxide immediately before use) were added and allowed the color to be developed sufficiently. Then, the sections were washed with distilled water for 1 minute to stop the reaction, enclosed, and examined under a microscope.

A short description of data set [2]: Blood-brain barrier permeability after intravenous administration. The conditions noted are these: for Plasma: mice, content in plasma two minutes after intravenous administration; for tissue uptake at 2 min: mouse, brain, iv.
Method: (§1) (B) Testing of blood-brain barrier permeability Measurements of blood-brain barrier permeability were made according to the following procedures. Compounds of the present invention were intravenously administered to mice to determine their in vivo blood-brain barrier permeability. • (1) Mice utilized Slc:ICR weighing 30-40 g (7 weeks old, n=3) (Nippon SLC). • (2) A test compound was dissolved in a mixture of 1N HCl, polyethylene glycol 400, and DMSO, or in DMSO or ethyl alcohol, and then diluted with purified water, and injected via tail vein. Two minutes after administration, the mice, under ether anesthesia, were subjected to taking blood from the abdominal aorta with a heparin-treated syringe and removing the brain. • (3) After taking blood, blood samples were centrifuged at 14,000 rpm at 4°C for 10 minutes, and their supernatants were kept at -80°C as plasma sample. The brain (including cerebellum) was kept at -80°C after its removal. • (4) The plasma sample, when used, was thawed, diluted with purified water, and then applied to a conditioned C18 solid-phase extraction cartridge (bond elute C18, 200 mg, Varian), followed by elution with methyl alcohol. Alternatively, after thawing the plasma sample, a diethyl ether/cyclohexane mixture was added, and the mixture was shaken, and then centrifuged to separate an oil layer. • (5) The brain material, when used, was subjected to measuring its wet weight with the brain remaining frozen, and saline was added to the brain for homogenization. The homogenate was centrifuged for 10 minutes, and the supernatant was applied to a conditioned C18 solid-phase extraction cartridge and eluted with methyl alcohol. Alternatively, after measuring the wet weight of the frozen brain, a diethyl ether/cyclohexane mixture was added to the brain, and the mixture was homogenized, shaken, and then centrifuged to separate an oil layer. • (6) The absorbance and fluorescence were detected employing high performance liquid chromatography. • (7) For each of the plasma and brain, the content of the test compound in the plasma or brain (%ID (injected dose)/ml or g) was determined, relative to the administered dose.
For data set [3] the following is noted: mouse, in vivo, iv, 2 min.
Method: as §1

Where two headings read alike, the source gives them in different places.

T1 sequence (P05067 672-713 limits assumed): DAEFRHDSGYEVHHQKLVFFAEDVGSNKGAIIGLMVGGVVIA

Consider `CN(C)c1ncc(/C=C/c2nc3ccccc3o2)s1` [BF-197, 2-[2-(2-dimethylaminothiazol-5-yl)ethenyl]benzoxazole], for which the MTD at 168 h in data set [1] was no less than 10 mg/kg. Also, the “Degree of β-structure recognition (%)” value in the data set with Amyloid β-protein is given as 71.8%. In addition, at senile plaques, the “staining properties compared with immunostaining of anti-Aβ antibody 6F/3D” value is “stains senile plaques” and the “staining properties in sections of the brain of a patient with Alzheimer's disease” value (“staining properties in sections” for short) is “mainly stains senile plaques”. Besides, in data set [2], the Plasma is recorded as 1.9 %ID/g or ml and the tissue uptake at 2 min stood at 15 %ID/g.
Regarding “2-[2-(5-dimethylaminothiazol-2-yl)ethenyl]benzoxazole [BF-215]”, the “Maximum Tolerated Dose (mg/kg, intravenous administration)” value in data set [1] is “≧ 10 mg/kg”. In addition, in the data set with Amyloid β-protein, the “Degree of β-structure recognition (%)” value was determined as 82.6%. In addition, the “staining properties in sections” value on senile plaques is listed as “stains senile plaques”. In addition, in data set [3], the Brain was 8.8 %ID/g or ml and the Plasma is 2.5 %ID/g or ml.
In the case of `Cc1nc(/C=C/c2cnc(N(C)C)s2)oc1C` [BF-214, 2-(dimethylamino)-5-[2-(4,5-dimethyloxazol-2-yl)ethenyl]thiazole], the MTD at 168 h in data set [1] was no less than 10 mg/kg. For the same compound, in the data set on Amyloid β-protein, the “Degree of β-structure recognition (%)” value was 58.9%. Also, the “staining properties in sections” value at senile plaques is “stains senile plaques”. Besides, in data set [2], the Plasma is recorded as 2.1 %ID/g or ml and the tissue uptake at 2 min came to 8.8 %ID/g.
Consider `CN(C)c1ncc(/C=C/c2ccc3ccccc3n2)s1` [BF-222, 2-[2-(2-dimethylaminothiazol-5-yl)ethenyl]quinoline], for which the MTD at 168 h in data set [1] is no less than 10 mg/kg. Further, the “Degree of β-structure recognition (%)” value in the data set with Amyloid β-protein came out at 62.3%. Moreover, in data set [2], the Plasma is recorded as 2.0 %ID/g or ml and the tissue uptake at 2 min is 13 %ID/g.
`CNc1ccc(/C=C/C=C/C=C/c2ccc3ccccc3n2)cc1` [BF-189, 1-(4-methylaminophenyl)-6-(2-quinolyl)-1,3,5-hexatrien]: in data set [1], the MTD at 168 h was no less than 10 mg/kg. Besides, the “Degree of β-structure recognition (%)” value in the data set on Amyloid β-protein worked out at 79.8%. In addition, the “staining properties in sections” value on senile plaques is recorded as “stains senile plaques”.
For the compound `CN(C)c1ncc(/C=C/c2nc3ccc(OCCF)cc3o2)s1` [BF-227, 2-[2-(2-dimethylaminothiazol-5-yl)ethenyl]-6-(2-fluoroethyloxy)benzoxazole], in data set [1], the MTD at 168 h is no less than 10 mg/kg. The “Degree of β-structure recognition (%)” value in the data set with Amyloid β-protein is given as 70.2%. Also, at senile plaques, the “staining properties compared with immunostaining of anti-Aβ antibody 6F/3D” value is “stains senile plaques (Fig. 16, wedge-shaped arrowheads) and diffuse plaques”; the “staining properties in sections” value is “mainly stains senile plaques”. Besides, in data set [2], the Plasma is recorded as 2.1 %ID/g or ml and the tissue uptake at 2 min stood at 7.9 %ID/g.
